Patent publication US11440886B2, “Anti-inflammatory compound, and preparation and use thereof” (E-Nitiate Biopharmaceuticals (Hangzhou) Co., Ltd., priority 2018, dated 2022)

Biological target: human recombinant PDE4B1 enzyme (Homo sapiens (Human), UniProt Q07343)
Test: Inhibition of PDE4B1 activity by cAMP HTRF assay
Format: biochemical
Details: human recombinant PDE4B1, cAMP 40 nM, pH 7.4
Description: Determination of the inhibition of the compounds on PDE4B1 activity by using cAMP HTRF® assay
The inhibitory effect of the compounds on human PDE4B1 enzyme activity was determined by quantifying the 5′-adenosine monophosphate (5′-AMP) formed from 3′,5′-cyclic adenosine monophosphate (cAMP).
The test compound or water (control) and human recombinant PDE4B1 enzyme (4.8 U) were mixed in a buffer solution (pH 7.4) consisting of 1× Hanks' balanced salt solution (HBSS), 5 mM HEPES, 3 mM MgCl2, and 0.1% BSA and incubated for 10 min. A cAMP enzyme substrate (final concentration 40 nM) was added, and the mixture was incubated at room temperature for 60 min. Then a fluorescent acceptor (Dye2 labeled with cAMP), a fluorescent donor (anti-cAMP antibody labeled with europium cryptate) and a non-specific phosphodiesterase inhibitor IBMX (3-isobutyl-1-methyl xanthine; final concentration 1 mM) were added. After 60 min, the fluorescence transfer related to the amount of remaining cAMP was measured on a microplate reader (Rubystar, BMG) at λex=337 nm, λem=620 nm and λem=665 nm. The enzyme activity is calculated from the ratio of the signals measured at 665 nm and 620 nm. The results are expressed as percent inhibition of the enzyme activity of the control (without PDE4 inhibitor). The enzyme was omitted for measurement of the basic control. The IC50 value (IC50=the concentration that caused the half-maximum inhibition of the specific activity of the control) is derived from dose-response measurements with eight different concentrations (n=2; repeated 2 times)

human recombinant PDE4B1 enzyme, sequence (Q07343 whole entry): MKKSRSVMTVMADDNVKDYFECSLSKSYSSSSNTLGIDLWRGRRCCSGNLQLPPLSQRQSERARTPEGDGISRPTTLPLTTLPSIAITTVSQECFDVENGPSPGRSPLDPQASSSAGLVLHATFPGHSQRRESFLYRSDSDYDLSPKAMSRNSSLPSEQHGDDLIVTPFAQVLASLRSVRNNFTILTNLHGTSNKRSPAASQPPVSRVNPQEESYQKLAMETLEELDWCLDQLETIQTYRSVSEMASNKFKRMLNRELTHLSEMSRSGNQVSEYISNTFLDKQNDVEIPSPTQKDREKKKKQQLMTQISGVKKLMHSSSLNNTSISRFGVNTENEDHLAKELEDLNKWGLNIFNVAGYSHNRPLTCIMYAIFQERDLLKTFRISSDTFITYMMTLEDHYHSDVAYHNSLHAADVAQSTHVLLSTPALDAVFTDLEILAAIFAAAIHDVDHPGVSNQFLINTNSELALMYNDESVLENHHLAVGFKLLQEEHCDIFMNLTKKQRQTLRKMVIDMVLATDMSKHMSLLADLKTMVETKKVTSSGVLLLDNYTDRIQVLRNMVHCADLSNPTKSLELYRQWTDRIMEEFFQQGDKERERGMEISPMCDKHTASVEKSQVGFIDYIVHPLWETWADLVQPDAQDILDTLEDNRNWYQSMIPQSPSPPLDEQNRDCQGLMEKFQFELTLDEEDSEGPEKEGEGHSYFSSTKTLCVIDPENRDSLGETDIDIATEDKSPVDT

In order of rising IC50:
1. COc1ccc(C(C#N)=Cn2c(C)cc(=O)cc2C)cc1OCC1CC1 (stereo in doubt) [Example 106, (E)-1-(2-(3-cyclopropylmethoxy-4-methoxyphenyl)-2-cyanoethenyl)-2,6-dimethylpyridin-4(1H)-one]  2.7 nM
2. CCCCCCOc1cc(C(=O)Cn2c(C)cc(=O)cc2C)ccc1OC [Example 18, 1-(2-(3-n-hexyloxy-4-methoxyphenyl)-2-oxoethyl)-2,6-dimethylpyridin-4(1H)-one]  4.5 nM
3. COc1ccc(C(=O)Cn2c(C)cc(=O)cc2C)cc1OC1CC1 [Example 19, 1-(2-(3-cyclopropyloxy-4-methoxyphenyl)-2-oxoethyl)-2,6-dimethylpyridin-4(1H)-one]  4.6 nM
4. COc1ccc(C(=O)Cn2c(C)cc(=O)cc2C)cc1OC1CCC1 [Example 21, 1-(2-(3-cyclobutyloxy-4-methoxyphenyl)-2-oxoethyl)-2,6-dimethylpyridin-4(1H)-one]  4.6 nM
5. CCCOc1cc(C(=O)Cn2c(C)cc(=O)cc2C)ccc1OC [Example 13, 1-(2-(3-propoxy-4-methoxyphenyl)-2-oxoethyl)-2,6-dimethylpyridin-4(1H)-one]  4.9 nM
6. COc1ccc(C(=O)Cn2c(C)cc(=O)cc2C)cc1OC1CCCC1 [Example 23, 1-(2-(3-cyclopentyloxy-4-methoxyphenyl)-2-oxoethyl)-2,6-dimethylpyridin-4(1H)-one]  5 nM
7. COc1ccc(C(Cn2c(C)cc(=O)cc2C)OC(=O)C=C(C)C)cc1OCC1CC1 (stereo not shown) [Example 7, (1-(3-cyclopropylmethoxy-4methoxyphenyl)-2-(2,6-dimethyl-4-carbonylpyridin-1(4H)-yl)ethyl) 3-methylcrotonate]  5.7 nM
8. COc1ccc(C(=O)Cn2c(C)cc(=O)cc2C)cc1OCC(C)C [Example 16, 1-(2-(3-iso-butoxy-4-methoxyphenyl)-2-oxoethyl)-2,6-dimethylpyridin-4(1H)-one]  10.3 nM
9. COc1ccc(C(=O)Cn2c(C)cc(=O)cc2C)cc1OC1CC=CC1 [Example 25, 1-(2-(3-(cyclopent-3-en-1-yloxy)-4-methoxyphenyl)-2-oxoethyl)-2,6-dimethylpyridin-4(1H)-one]  11.5 nM
10. Cc1cc(=O)cc(C)n1/C=C/c1ccc(OC(F)F)c(O[C@H]2CC[S+]([O-])C2)c1 (single isomer, unassigned) [Example 98-2]  12.5 nM
11. COc1ccc(C(=O)Cn2c(C)cc(=O)cc2C)cc1OCC1CC1 [Example 20, 1-(2-(3-cyclopropylmethoxy-4-methoxyphenyl)-2-oxo)ethyl-2,6-dimethylpyridin-4(1H)-one]  13 nM
12. COc1ccc(C(=O)Cn2c(C)cc(=O)cc2C)cc1OCSC [Example 32, 1-(2-(3-methylthiomethoxy-4-methoxyphenyl)-2-oxoethyl)-2,6-dimethylpyridin-4(1H)-one]  13.9 nM
13. CCCCCOc1cc(C(=O)Cn2c(C)cc(=O)cc2C)ccc1OC [Example 17, 1-(2-(3-n-pentyloxy-4-methoxyphenyl)-2-oxoethyl)-2,6-dimethylpyridin-4(1H)-one]  16 nM
14. C/C=C/C(=O)OC(Cn1c(C)cc(=O)cc1C)c1ccc(OC)c(OCC2CC2)c1 (stereo not shown) [Example 6, (1-(3-cyclopropylmethoxy-4methoxyphenyl)-2-(2,6-dimethyl-4-carbonylpyridin-1(4H)-yl)ethyl) crotonate]  19 nM
15. COc1ccc(C(=O)Cn2c(C)cc(=O)cc2C)cc1OCC1CCC1 [Example 22, 1-(2-(3-cyclobutylmethoxy-4-methoxyphenyl)-2-oxo)ethyl-2,6-dimethylpyridin-4(1H)-one]  20 nM
16. COc1ccc(C(=O)Cn2c(C)cc(=O)cc2C)cc1OC(C)C [Example 14, 1-(2-(3-isopropoxy-4-methoxyphenyl)-2-oxoethyl)-2,6-dimethylpyridin-4(1H)-one]  21 nM
17. CC#CC(=O)OC(Cn1c(C)cc(=O)cc1C)c1ccc(OC)c(OCC2CC2)c1 (stereo not shown) [Example 8, (1-(3-cyclopropylmethoxy-4methoxyphenyl)-2-(2,6-dimethyl-4-carbonylpyridin-1(4H)-yl)ethyl) but-2-ynoate]  23 nM
18. COc1ccc(C(=O)Cn2c(C)cc(=O)cc2C)cc1OC1CCCCC1 [Example 24, 1-(2-(3-cyclohexyloxy-4-methoxyphenyl)-2-oxoethyl)-2,6-dimethylpyridin-4(1H)-one]  23 nM
19. CC#CCOC(Cn1c(C)cc(=O)cc1C)c1ccc(OC)c(OCC2CC2)c1 (stereo not shown) [Example 9, 1-(2-(but-2-yn-1-yloxy)-2-(3-cyclopropylmethoxy-4-methoxyphenyl)ethyl)-2,26-dimethylpyridin-4-(1H)-one]  25 nM
20. Cc1cc(=O)cc(C)n1/C=C/c1ccc(OC(F)F)c(O[C@@H]2CC[S+]([O-])C2)c1 (single isomer, unassigned) [Example 101-2]  26 nM
21. COc1ccc(C(=O)Cn2c(C)cc(=O)cc2C)cc1OC1CCCO1 (stereo not shown) [Example 31, 1-(2-(3-(tetrahydrofuran-2-yl)oxy-4-methoxyphenyl)-2-oxoethyl)-2,6-dimethylpyridin-4(1H)-one]  26 nM
22. COc1ccc(C(=O)Cn2c(C)cc(=O)cc2C)cc1OCCSC [Example 35, 1-(2-(3-methylthioethoxy-4-methoxyphenyl)-2-oxoethyl)-2,6-dimethylpyridin-4(1H)-one]  32 nM
23. CCCCOc1cc(C(=O)Cn2c(C)cc(=O)cc2C)ccc1OC [Example 15, 1-(2(3-n-butoxy-4-methoxyphenyl)-2-oxoethyl)-2,6-dimethylpyridin-4(1H)-one]  33 nM
24. COc1ccc(C(Cn2c(C)cc(=O)cc2C)OC(=O)C2CC2)cc1OCC1CC1 (stereo not shown) [Example 4, (1-(3-cyclopropylmethoxy-4methoxyphenyl)-2-(2,6-dimethyl-4-carbonylpyridin-1(4H)-yl)ethyl) cyclopropylcarboxylate]  36 nM
25. C=CCOc1cc(C(=O)Cn2c(C)cc(=O)cc2C)ccc1OC [Example 26, 1-(2-(3-allyloxy-4-methoxyphenyl)-2-oxoethyl)-2,6-dimethylpyridin-4(1H)-one]  39 nM
26. COc1ccc(C(=O)Cn2c(C)cc(=O)cc2C)cc1OC [Example 11, 1-(2-(3,4-dimethoxyphenyl)-2-oxoethyl)-2,6-dimethylpyridin-4(1H)-one]  44 nM
27. COc1ccc(C(=O)Cn2c(C)cc(=O)cc2C)cc1OCC=C(C)C [Example 27, 1-(2-(3-((3-methylbut-2-en-1-yl)oxy)-4-methoxyphenyl)-2-oxoethyl)-2,6-dimethylpyridin-4(1H)-one]  65 nM
28. COc1ccc(/C=C/n2c(C)cc(=O)cc2C)cc1O[C@@H]1CC[S+]([O-])C1 (single isomer, unassigned) [Example 86-2]  81 nM
29. C#CCOc1cc(C(=O)Cn2c(C)cc(=O)cc2C)ccc1OC [Example 28, 1-(2-(3-propargyloxy-4-methoxyphenyl)-2-oxoethyl)-2,6-dimethylpyridin-4(1H)-one]  92 nM
30. CC#CCOc1cc(C(=O)Cn2c(C)cc(=O)cc2C)ccc1OC [Example 29, 1-(2-(3-(but-2-yn-1-yloxy)-4-methoxyphenyl)-2-oxoethyl)-2,6-dimethylpyridin-4(1H)-one]  93 nM
31. Cc1cc(=O)cc(C)n1/C=C/c1ccc(OC(F)F)c(O[C@H]2CC[S+]([O-])C2)c1 (single isomer, unassigned) [Example 98-1]  97 nM
32. Cc1cc(=O)cc(C)n1/C=C/c1ccc(OC(F)F)c(O[C@@H]2CC[S+]([O-])C2)c1 (single isomer, unassigned) [Example 101-1]  99 nM
33. COc1ccc(/C=C/n2c(C)cc(=O)cc2C)cc1O[C@H]1CC[S+]([O-])C1 (single isomer, unassigned) [Example 83-2]  106 nM
34. COc1ccc(C(=O)Cn2c(C)cc(=O)cc2C)cc1OC1COC1 [Example 30, 1-(2-(3-(oxacyclobutan-3-yl-oxy)-4-methoxyphenyl)-2-oxoethyl)-2,6-dimethylpyridin-4(1H)-one]  116 nM
35. COc1ccc(/C=C/n2c(C)cc(=O)cc2C)cc1O[C@@H]1CC[S+]([O-])C1 (single isomer, unassigned) [Example 86-1]  310 nM
36. COc1ccc(C(=O)Cn2c(C)cc(=O)cc2C)cc1OCS(C)(=O)=O [Example 34, 1-(2-(3-methylsulfonemethoxy-4-methoxyphenyl)-2-oxoethyl)-2,6-dimethylpyridin-4(1H)-one]  420 nM
37. COc1ccc(/C=C/n2c(C)cc(=O)cc2C)cc1O[C@H]1CC[S+]([O-])C1 (single isomer, unassigned) [Example 83-1]  550 nM
38. COc1ccc(C(O)Cn2c(C)cc(=O)cc2C)cc1OCC1CC1 (stereo not shown) [Example 1, 1-(2-(3-cyclopropylmethoxy-4-methoxyphenyl)-2-hydroxyethyl)-2,6, dimethylpyridin-4(1H)-one]  760 nM
39. COc1ccc(C(=O)Cn2c(C)cc(=O)cc2C)cc1OC[S+](C)[O-] (stereo not shown) [Example 33, 1-(2-(3-methylsulfoxidemethoxy-4-methoxyphenyl)-2-oxoethyl)-2,6-dimethylpyridin-4(1H)-one]  830 nM
40. COc1ccc(C(=O)Cn2c(C)cc(=O)cc2C)cc1O [Example 10, 1-(2-(3-hydroxy-4-methoxyphenyl)-2-oxoethyl)-2,6-dimethylpyridin-4(1H)-one]  3300 nM
